{"source": "patent US20240279283A1", "about": "“CYCLIC PEPTIDE ANTIBIOTICS” (priority 2021, published 2024)", "key": {"E. coli 25922 IMP": {"system": "E. coli 25922 IMP", "assay": "Minimum Inhibitory Concentration (MIC) determination, E. coli 25922 IMP", "format": "cell-based", "details": "LB broth, 5×10^5 CFU/ml, 37° C., 18 hours, scored by eye", "description": "(§1) MICs were determined by performing two-fold serial dilutions of peptides in LB broth to a final volume of 0.1 ml in round-bottom 96-well assay plates (Corning Life Sciences No 3788). Peptides were initially resuspended in 100% DMSO to 10 mM and subsequently diluted in LB medium to the appropriate concentration. Each well was inoculated with 5×10^5 CFU/ml of the screening stain and incubated at 37° C. without agitation for 18 hours. Plates were scored by eye, and the lowest compound concentration preventing visible growth was determined to be the MIC."}, "E. coli BW25113": {"system": "E. coli BW25113", "assay": "Minimum Inhibitory Concentration (MIC) determination, E. coli BW25113", "format": "cell-based", "parameters": "unit not given here", "details": "LB broth, 5×10^5 CFU/ml, 37° C., 18 hours, scored by eye", "description": "as §1"}}, "note": "Bridge positions count the residues as written; N and C are the ends. Square brackets hold non-standard residues; d marks the D form. Peptide text beside a SMILES is read from it. Phe(4-Cl) = N[C@@H](Cc1ccc(Cl)cc1)C(=O)O; 1Nal = N[C@@H](Cc1cccc2ccccc12)C(=O)O; His(π-Me) = Cn1cncc1C[C@H](N)C(=O)O; NMeF = CN[C@@H](Cc1ccccc1)C(=O)O; Abu = CC[C@H](N)C(=O)O; Aib = CC(C)(N)C(=O)O"}
{"smiles": "CC[C@H](C)[C@@H]1NC(=O)[C@H]([C@@H](C)O)NC(=O)[C@H](Cc2cncn2C)NC(=O)[C@H](Cc2ccccc2)NC(=O)CSC[C@@H](C(=O)NCC(N)=O)NC(=O)[C@H](Cc2ccc(O)cc2)NC(=O)[C@H](Cc2ccc(Cl)cc2)NC(=O)[C@H](Cc2ccc(O)cc2)NC(=O)[C@H](CCCNC(=N)N)NC(=O)[C@H](Cc2ccccc2)NC(=O)C(C)(C)NC(=O)[C@H](CCCNC(=N)N)NC(=O)[C@H](CCCCN)NC(=O)[C@H](CCCNC(=N)N)NC1=O", "note": "[Compound 58] ({CH2CO}-F[His(π-Me)]TIRKR[Aib]FRY[Phe(4-Cl)]YCG-NH2; thioether N-14)", "values": [{"measurement": "MIC E. coli 25922 IMP WUXI::MIC", "setting": "E. coli 25922 IMP", "result": 0.25}, {"measurement": "MIC E. coli BW25113 WUXI::MIC", "setting": "E. coli BW25113", "result": 2}]}
{"smiles": "CC[C@@H]1NC(=O)[C@H](Cc2ccccc2)NC(=O)CSC[C@@H](C(=O)NCC(N)=O)NC(=O)[C@H](Cc2cncn2C)NC(=O)[C@H](CC)NC(=O)[C@H](Cc2c[nH]cn2)NC(=O)[C@H](Cc2ccccc2)N(C)C(=O)[C@H](CCCNC(=N)N)NC(=O)[C@H](CO)NC(=O)CNC(=O)[C@H](Cc2c[nH]cn2)NC(=O)[C@H](Cc2c[nH]c3ccccc23)NC1=O", "note": "[Compound 4, (3R,6S,9S,12S,15S,18S,21S,27S,30S, 33S,36S)-N-(2-amino-2-oxo-ethyl)-15,36-dibenzyl-9,33-diethyl-18-(3-guanidinopropyl)-21-(hydroxymethyl)-12,27-bis(1H-imidazol-4-ylmethyl)-30-(1H-indol-3-ylmethyl)-16-methyl-6-[(3-methylimidazol-4-yl)methyl]-5,8,11,14,17,20,23,26,29,32,35,38-dodecaoxo-1-thia-4,7,10,13,16,19,22,25,28,31,34,37-dodecazacyclononatriacontane-3-carboxamide] ({CH2CO}-F[Abu]WHGSR[NMeF]H[Abu][His(π-Me)]CG-NH2; thioether N-12)", "values": [{"measurement": "MIC E. coli 25922 IMP WUXI::MIC", "setting": "E. coli 25922 IMP", "result": 0.128}, {"measurement": "MIC E. coli BW25113 WUXI::MIC", "setting": "E. coli BW25113", "result": ">32"}]}
{"smiles": "CC[C@H](C)[C@@H]1NC(=O)C(C)(C)NC(=O)[C@H](Cc2cncn2C)NC(=O)[C@H](Cc2ccccc2)NC(=O)CSC[C@@H](C(=O)NCC(N)=O)NC(=O)[C@H](Cc2ccc(O)cc2)NC(=O)[C@H](Cc2c[nH]c3ccccc23)NC(=O)[C@H](Cc2ccc(O)cc2)NC(=O)[C@H](CCCNC(=N)N)NC(=O)[C@H](Cc2ccccc2)NC(=O)C(C)(C)NC(=O)[C@H](CCCNC(=N)N)NC(=O)[C@H](CCCCN)NC(=O)[C@H](CCCNC(=N)N)NC1=O", "note": "[Compound 57] ({CH2CO}-F[His(π-Me)][Aib]IRKR[Aib]FRYWYCG-NH2; thioether N-14)", "values": [{"measurement": "MIC E. coli 25922 IMP WUXI::MIC", "setting": "E. coli 25922 IMP", "result": 2}, {"measurement": "MIC E. coli BW25113 WUXI::MIC", "setting": "E. coli BW25113", "result": ">32"}]}
{"smiles": "CC[C@H](C)[C@@H]1NC(=O)[C@H]([C@@H](C)O)NC(=O)[C@H](Cc2cncn2C)NC(=O)[C@H](Cc2ccccc2)NC(=O)CSC[C@@H](C(=O)NCC(N)=O)NC(=O)[C@H](Cc2ccc(O)cc2)NC(=O)[C@H](Cc2c[nH]c3ccccc23)NC(=O)[C@H](Cc2ccc(O)cc2)NC(=O)[C@H](Cc2cncn2C)NC(=O)[C@H](Cc2ccccc2)NC(=O)C(C)(C)NC(=O)[C@H](CCCNC(=N)N)NC(=O)[C@H](CCCNC(=N)N)NC(=O)[C@H](CCCNC(=N)N)NC1=O", "note": "[Compound 53] ({CH2CO}-F[His(π-Me)]TIRRR[Aib]F[His(π-Me)]YWYCG-NH2; thioether N-14)", "values": [{"measurement": "MIC E. coli 25922 IMP WUXI::MIC", "setting": "E. coli 25922 IMP", "result": 0.25}, {"measurement": "MIC E. coli BW25113 WUXI::MIC", "setting": "E. coli BW25113", "result": 4}]}
{"smiles": "CC[C@@H]1NC(=O)[C@H](Cc2ccccc2)NC(=O)CSC[C@@H](C(=O)NCC(N)=O)NC(=O)[C@H](Cc2cncn2C)NC(=O)[C@H](CC)NC(=O)[C@H](Cc2c[nH]cn2)NC(=O)[C@H](Cc2ccccc2)N(C)C(=O)[C@H](CCCNC(=N)N)NC(=O)[C@H](CO)NC(=O)CNC(=O)[C@H](Cc2c[nH]cn2)NC(=O)[C@H](Cc2cccc3ccccc23)NC1=O", "note": "[Compound 5, (3R,6S,9S,12S,15S,18S,21S,27S,30S, 33S,36S)-N-(2-amino-2-oxo-ethyl)-15,36-dibenzyl-9,33-diethyl-18-(3-guanidinopropyl)-21-(hydroxymethyl)-12,27-bis(1H-imidazol-4-ylmethyl)-16-methyl-6-[(3-methylimidazol-4-yl)methyl]-30-(1-naphthylmethyl)-5,8,11,14,17,20,23,26,29,32,35,38-dodecaoxo-1-thia-4,7,10,13,16,19,22,25,28,31,34,37-dodecazacyclononatriacontane-3-carboxamide] ({CH2CO}-F[Abu][1Nal]HGSR[NMeF]H[Abu][His(π-Me)]CG-NH2; thioether N-12)", "values": [{"measurement": "MIC E. coli 25922 IMP WUXI::MIC", "setting": "E. coli 25922 IMP", "result": 0.016}, {"measurement": "MIC E. coli BW25113 WUXI::MIC", "setting": "E. coli BW25113", "result": ">32"}]}
{"smiles": "CC[C@H](C)[C@@H]1NC(=O)C(C)(C)NC(=O)[C@H](Cc2cncn2C)NC(=O)[C@H](Cc2ccccc2)NC(=O)CSC[C@@H](C(=O)NCC(N)=O)NC(=O)[C@H](Cc2ccc(O)cc2)NC(=O)[C@H](Cc2c[nH]c3ccccc23)NC(=O)[C@H](Cc2ccc(O)cc2)NC(=O)[C@H](Cc2cncn2C)NC(=O)[C@H](Cc2ccccc2)NC(=O)C(C)(C)NC(=O)[C@H](CCCNC(=N)N)NC(=O)[C@H](CCCCN)NC(=O)[C@H](CCCNC(=N)N)NC1=O", "note": "[Compound 56] ({CH2CO}-F[His(π-Me)][Aib]IRKR[Aib]F[His(π-Me)]YWYCG-NH2; thioether N-14)", "values": [{"measurement": "MIC E. coli 25922 IMP WUXI::MIC", "setting": "E. coli 25922 IMP", "result": 8}, {"measurement": "MIC E. coli BW25113 WUXI::MIC", "setting": "E. coli BW25113", "result": ">32"}]}
{"smiles": "CC[C@@H]1NC(=O)[C@H](Cc2ccccc2)NC(=O)CSC[C@@H](C(=O)NCC(N)=O)NC(=O)[C@H](Cc2cncn2C)NC(=O)[C@H](CCCNC(=N)N)NC(=O)[C@H](Cc2cnc[nH]2)NC(=O)[C@H](Cc2ccccc2)N(C)C(=O)[C@H](CCCNC(=N)N)NC(=O)[C@H](CO)NC(=O)CN(C)C(=O)[C@H](Cc2cnc[nH]2)NC(=O)[C@H](Cc2c[nH]c3ccccc23)NC1=O", "note": "(racemic) [Compound 11, rac-(3R,6S,9S,12S,15S,18S,21S,27S,30S, 33S,36S)-N-(2-amino-2-oxo-ethyl)-15,36-dibenzyl-33-ethyl-9,18-bis(3-guanidinopropyl)-21-(hydroxymethyl)-12,27-bis(1H-imidazol-5-ylmethyl)-30-(1H-indol-3-ylmethyl)-16,25-dimethyl-6-[(3-methylimidazol-4-yl)methyl]-5,8,11,14,17,20,23,26,29,32,35,38-dodecaoxo-1-thia-4,7,10,13,16,19,22,25,28,31,34,37-dodecazacyclononatriacontane-3-carboxamide]", "values": [{"measurement": "MIC E. coli 25922 IMP WUXI::MIC", "setting": "E. coli 25922 IMP", "result": "1.9074E−06"}, {"measurement": "MIC E. coli BW25113 WUXI::MIC", "setting": "E. coli BW25113", "result": 8}]}
{"smiles": "CC[C@@H]1NC(=O)[C@H](Cc2ccccc2)NC(=O)CSC[C@@H](C(=O)NCC(N)=O)NC(=O)[C@H](Cc2cncn2C)NC(=O)[C@H](CCCNC(=N)N)NC(=O)[C@H](Cc2cnc[nH]2)NC(=O)[C@H](Cc2ccc(O)cc2)N(C)C(=O)[C@H](CCCNC(=N)N)NC(=O)[C@H](CO)NC(=O)CN(C)C(=O)[C@H](Cc2cnc[nH]2)NC(=O)[C@H](Cc2c[nH]c3ccccc23)NC1=O", "note": "(racemic) [Compound 13]", "values": [{"measurement": "MIC E. coli 25922 IMP WUXI::MIC", "setting": "E. coli 25922 IMP", "result": 0.00}, {"measurement": "MIC E. coli BW25113 WUXI::MIC", "setting": "E. coli BW25113", "result": 4}]}
{"smiles": "CC[C@@H]1NC(=O)[C@H](Cc2ccccc2)NC(=O)CSC[C@@H](C(=O)NCC(N)=O)NC(=O)[C@H](Cc2cncn2C)NC(=O)[C@H](CCCNC(=N)N)NC(=O)[C@H](Cc2cnc[nH]2)NC(=O)[C@H](Cc2ccc(O)cc2)N(C)C(=O)[C@H](CCCNC(=N)N)NC(=O)[C@H](CO)NC(=O)CNC(=O)[C@H](Cc2cnc[nH]2)NC(=O)[C@H](Cc2c[nH]c3ccccc23)NC1=O", "note": "(racemic) [Compound 12]", "values": [{"measurement": "MIC E. coli 25922 IMP WUXI::MIC", "setting": "E. coli 25922 IMP", "result": "3.8137E−06"}, {"measurement": "MIC E. coli BW25113 WUXI::MIC", "setting": "E. coli BW25113", "result": 1}]}
